Data: patent US20250134895A1, “METHODS AND COMPOSITIONS FOR TREATING ALPHA-SYNUCLEIN-MEDIATED NEURODEGENERATION” (UNIVERSITY HEALTH NETWORK, priority 2021, published 2025)

Experiments:
[1] = test system: transgenic A30P α-synuclein C. elegans; experiment: Coiler score and locomotion of C. elegans expressing A30P α-synuclein in dopaminergic neurons; format: in vivo, Caenorhabditis elegans
Method: Using high-resolution, multi-worm tracking with custom image processing, methods were developed for semi-automated and blinded scoring of circularity for a population of simultaneously recorded animals (n=10 per recording). A coiler score was determined for the population tested by first calculating the circularity value for each animal in each frame of video and then calculating the proportion of circularity values >0.6. […] The coiler phenotype is an abnormal motor behaviour previously reported for several unc C. elegans strains with mutations affecting neuronal function.
Animals were synchronized by isolating eggs using alkaline hypochlorite treatment and hatching overnight. Larvae were plated onto NGM agar plates with OP50 and grown for 4 days before recording locomotion. For individual C. elegans recordings, a single adult animal was randomly picked, washed for 1 to 2 minutes in M9 buffer, and then transferred to a fresh NGM plate without food for imaging. Video images were acquired (2 frames per second) for up to 6 minutes using a sCMOS camera (pco.edge, PCO) mounted on a stereomicroscope (Olympus MVX10 MacroView) controlled using the μManager software.^55 A total of 40 individual animals were imaged for each strain. For C. elegans population recordings, ten adult animals were randomly removed using an eyelash pick, washed for 1 minute in M9 buffer, and then transferred to a fresh NGM plate without food, with a ring of copper sulfate solution (150 mM) around the area of recording (a chemorepellent to keep the animals in the recording frame). Exploratory locomotion was recorded using a CCD camera (GX1920, Allied Vision) which was attached to a dissecting stereomicroscope (Leica M165C, 1.0× PlanApo lens). A Labview program captured video (2 frames per second) at 1936×1456 resolution. Using ImageJ, the displacement, perimeter, and area of each animal was calculated, from which a circularity value was computed using the following formula: circularity=4π(A/P^2), where A is the area of the animal's body and P is the perimeter of the animal's body (both expressed in arbitrary pixel units). […] Using MATLAB (Mathworks), various behavioural metrics including the coiler score were calculated, which is the percentage of frames with a circularity value >0.6. Speed was automatically computed from the ImageJ based WrmTrk plugin as the distance travelled by each animal (in pixels) over the amount of time that it was tracked (in seconds).56 Average speed was determined by calculating the weighted average of each tracked animal's speed within a single population of animals. On the day of the recording for dopamine or raclopride treatment, adult animals were washed for 1 minute in M9 buffer, treated in a solution containing either drug for 1 minute, and then placed onto fresh NGM plates without food, with a copper sulfate solution ring around the area of recording. […] Drug plates were prepared by adding each drug to LB medium with OP50 before spreading onto fresh NGM plates. The solvent used to dissolve each drug was used as vehicle control for the drug treatment experiments (M9 buffer for dopamine, distilled water for raclopride, DMSO for all other drugs).
After 72 hours of drug treatment, animals were randomly picked, washed, and recorded. A total of ten worms were recorded per population, and twelve populations were recorded for each of the four treatment groups. Locomotion was recorded for each population over a total of 1800 frames over three minutes. The animal's movement speed, area, and perimeter were automatically analyzed as previously described. Coiler score was calculated automatically using a ratio of the animal's area to perimeter, where a higher coiler score would represent a greater degree of α-synuclein-induced dopaminergic neuron dysfunction in vivo.

α-synuclein protein = experiment: Immunoblot for α-synuclein protein in lysates of treated C. elegans; format: in vivo, Caenorhabditis elegans; settings: 50 μM
Description: The chaperone system is composed of chaperone proteins, such as HSP70 (heat shock protein 70), and co-chaperones. Together, these proteins are integral to maintaining cellular protein quality control by folding newly translated polypeptides into their native conformation, refolding misfolded proteins to prevent their aggregation, and targeting proteins to degradation pathways, such as the autophagy-lysosomal system or ubiquitin-proteasome system, when refolding is unsuccessful. From the above in vitro findings, it was predicted that perturbations to the chaperone system in vivo would affect coiling of the transgenic α-synuclein C. elegans. To test this prediction, we treated the animals were treated with the geldanamycin analogue, 17-(allylamino)-17-demethoxygeldanamycin (17-AAG). […]
Synchronized animals (4 or 5 days old) were lysed in 0.5X Tris-HCl buffer with 0.5% Triton X-100 at 100° C. for 5 minutes and then passed through a 23-gauge needle 10 times. […] Protein concentration was determined with a Bio-Rad Lowry protein assay (Bio-RAD, 5000116) according to the manufacturer's instructions. […] Beads were washed and samples were analysed by immunoblotting and mass spectrometry (see below). […] Signals were detected with ECL (ThermoFisher, 32132) and developed on HyBlot CL autoradiography film (DV-E3018).

α-synuclein oligomers [2] = molecular target: T1, α-synuclein oligomers (Homo sapiens, UniProt P37840); experiment: Gaussia luciferase protein-fragment complementation cell assay of α-synuclein oligomers in H4 neuroglioma cells; format: cell-based; design: full-length human α-synuclein fused to the N-terminal fragment of Gaussia princeps luciferase (syn-luc1); full-length human α-synuclein fused to the C-terminal fragment of Gaussia princeps luciferase (syn-luc2); expressed in transfected cells; host or cells: H4 neuroglioma cells (ATCC, HTB-148), transient co-transfection; settings: 1 μM or 10 μM, 24 hours of treatment
Method: (§1) For controls in this assay, vehicle (i.e., DMSO), rapamycin, and bafilomycin A were used. Rapamycin, or sirolimus, is a small molecule that activates autophagy by inhibiting mTOR (mammalian target of rapamycin). […] To test this possibility, cells expressing α-synuclein were treated with each of the compounds and a cell permeable, resazurin-based assay was used to test for cell viability.
(§2) H4 neuroglioma cells (ATCC, HTB-148) were maintained in Dulbecco's Modified Eagle Medium plus high glucose, L-glutamine, and sodium pyruvate (ThermoFisher, 11995-065) with 10% heat-inactivated fetal bovine serum (ThermoFisher, 16140071) and 1% antibiotic-antimycotic cocktail (ThermoFisher, 15240062) at 37° C. and 5% CO2. DNA expression constructs encoding for full-length human α-synuclein fused to the N-terminal fragment of Gaussia princeps luciferase (syn-luc1), full-length human α-synuclein fused to the C-terminal fragment of Gaussia princeps luciferase (syn-luc2), and full-length Gaussia princeps luciferase were kindly provided by Dr. Pamela McLean, Mayo Clinic Jacksonville.^33 Cells were transiently co-transfected with syn-luc1 and syn-luc2 or transfected with luciferase alone using Superfect transfection reagent (Qiagen, 301305) according to the manufacturer's instructions. Twenty-four hours after transfection, cells were plated on a 96-well microplate at 60,000 cells per well. Twenty-four hours after plating, cells were treated with drugs or vehicle control. Following 24 hours of treatment, cells were washed 1 time with PBS and bioluminescence was measured using an automated CLARIOstar plate reader (Mandel, 430-0505). Cell permeable, native coelenterazine was used as the Gaussia luciferase substrate. Lyophilized coelenterazine (Nanolight, 303-500) was reconstituted in NanoFuel Solvent (Nanolight, 399-1), then diluted in PBS to 16.6 μg/mL, and dispensed per well to a final concentration of 20 μM). The bioluminescent signal generated by the luciferase enzyme was assessed at 470 nm over 5 seconds. Raw luminescence units were normalized to the DMSO vehicle control of each 96-well microplate. To assess cell viability, H4 neuroglioma cells were prepared and treated as described above and, 1 hour prior to viability analysis, cells were treated with PrestoBlue viability reagent (ThermoFisher, A13261) according to the manufacturer's instructions. Fluorescence was automatically measured using a CLARIOstar plate reader (Mandel, 430-0505) and then normalized to the fluorescence measure of the DMSO vehicle control.
We used a bioluminescent protein-fragment complementation assay in which human H4 neuroglioma cells co-express human α-synuclein tagged with the N- or C-terminal half of Gaussia princeps luciferase (FIG. 12). Reconstitution of a complete and active luciferase molecule from the fragments occurs upon α-synuclein oligomerization, and so luminescence provides an indirect measure of α-synuclein oligomer levels. H4 neuroglioma cells were co-transfected with α-syn luciferase fragments, and constructs were plated into a 96-well plate and treated with either 1 μM or 10 μM of each of the 19 drug compounds.

[3] = test system: full-length Gaussia princeps luciferase; experiment: Activity of full-length Gaussia luciferase alone in H4 cells; format: cell-based; settings: Example 5, FIG. 5c
Method: as §1, §2

H4 neuroglioma cells = test system: H4 neuroglioma cells
Method: as §1, §2

α-synuclein oligomers [4] = molecular target: T1, α-synuclein oligomers; experiment: Venus YFP protein-fragment complementation assay in rat primary cortical neurons; format: cell-based; settings: 72 hours; losartan 100 μM, rapamycin 50 nM, rifabutin 20 μM
Method: Specifically, adeno-associated viral vectors (AAV) were used to co-express human α-synuclein tagged with the N- or C-terminal half of Venus yellow fluorescent protein (YFP) in rat cortical neurons.
Pregnant Sprague Dawley rats (E17) were purchased from Charles River. Embryos were surgically removed, and neurons were harvested in a sterile environment. Neurons were plated on poly-D-lysine coated glass coverslips at a density of 5×10^5 cells per well in Neurobasal-A medium, (Gibco, 10888022) supplemented with B27 (2%) (Gibco, 17504044), antibiotic-antimycotic (1%) (Gibco, 15240062), and Glutamax (1%) (Gibco, 35050061). Fifty percent media changes were performed every 3 days. […] Two days post isolation, neurons were co-transduced with AAV-V1 S and AAV-SV2 or transduced with AAV-Venus alone at a MOI of 3,000. […] Concentrations were selected to avoid neuron toxicity according to previous reports.^57-61 Drug-containing media was removed, and cells were washed 1 time with ice-cold PBS before being fixed with 4% PFA (Sigma) at room temperature for 10 minutes. Levels of α-synuclein oligomers were measured by YFP fluorescence. […] YFP fluorescence intensity was analysed automatically using Imaris imaging software (Oxford Instruments). […]

α-synuclein oligomers [5] = molecular target: T1, α-synuclein oligomers; experiment: Immunoblot of crosslinked split YFP-tagged α-synuclein oligomers in rat primary cortical neuron lysates; format: cell-based; design: full-length human α-synuclein fused to the N-terminal fragment of Venus YFP (V1 S); full-length human α-synuclein fused to the C-terminal fragment of Venus YFP (SV2); host or cells: rat (Sprague Dawley, E17) primary cortical neurons, AAV co-transduction; settings: losartan 100 μM, rapamycin 50 nM, rifabutin 20 μM
Method: FIGS. 7A-7E. […] (a) Five positive hits were tested for their ability to reduce α-synuclein oligomer levels in rat primary cortical neurons measured with YFP-based protein-fragment complementation. […] Fluorescence intensity was analyzed using Imaris image analysis software by measuring the mean fluorescence intensity of α-synuclein positive neurons throughout a 3D field of view generated by z-stack image acquisition using the “surfaces” module. The value generated for each neuron was normalized to the mean fluorescence intensity of neurons treated with vehicle alone (N=3-4 replicates of n=10 fields of view for each treatment; each data point represents an individual replicate) (nested one-way ANOVA with Dunnett's post-hoc test, *p<0.05, *** p<0.001). […] Bottom: Representative fluorescent microscopy images of neurons treated with vehicle, losartan, rapamycin, or rifabutin and expressing YFP alone. Scale bars are […]. (e) Representative immunoblot to detect oligomers of split YFP-tagged α-synuclein (crosslinked) in rat primary cortical neuron lysates (actin used as a loading control).
Finally, it was examined whether these 5 compounds that had effects in our invertebrate C. elegans model reduce α-synuclein oligomers and α-synuclein-mediated dopaminergic neurodegeneration in mammalian systems.

C=CCNC1=C2C[C@@H](C)C[C@H](OC)[C@H](O)[C@@H](C)/C=C(\C)[C@H](OC(N)=O)[C@@H](OC)/C=C\C=C(/C)C(=O)NC(=CC1=O)C2=O [17-AAG, 17-(allylamino)-17-demethoxygeldanamycin]
reduced coiling compared with vehicle control ([1]; 50 μM): 51%
α-synuclein protein levels (α-synuclein protein): lower

CCCCc1nc(Cl)c(CO)n1Cc1ccc(-c2ccccc2-c2nnn[nH]2)cc1 [Losartan, losartan]
reduction in coiling compared with vehicle alone (decrease) ([1]; 100 μM of drug, 3 days on drug plates): 45%
decrease in luciferase activity compared with vehicle alone (α-synuclein oligomers [2]): 16%
changes in the activity of full-length Gaussia luciferase alone [3]: No statistically significant changes
changes in viability (H4 neuroglioma cells): No statistically significant changes
decrease in fluorescence compared with vehicle alone (α-synuclein oligomers [4]): 33%
α-synuclein oligomers as detected by immunoblotting (α-synuclein oligomers [5]): reduction
